Reference: patent US20200393446A1, “BIOLUMINESCENT SCREENING TEST FOR DETECTING CELL CYTOLYSIS” (Centre National de la Recherche Scientifique (CNRS), priority 2017, published 2020)

Experiments:
K562-NanoLuc cells = assay: Lysis of K562-NanoLuc cells by detergent, NanoLuc activity in supernatant; assay type: cell-based, human; settings: cells contacted with detergent, FIG. 1A
NK cells = assay: NK cell cytotoxicity assay: NanoLuc release from K562-NanoLuc cells co-cultured with compound-treated PBMC; assay type: cell-based, human; settings: PBMCs incubated 16 hours with Clobenpropit, 400,000 PBMCs/16,000 K562-NanoLuc, four hours of co-culture, FIG. 3B
Method: PBMC from healthy donors were incubated overnight in the absence or presence of compounds to be tested. Unless specified otherwise, PBMC were plated in 96-well round-bottom plates at a concentration of 400,000 cells/well in a final volume of 100 μL. After 16 hours, 16.000 K562-NanoLuc or twINNE cells were added to cultures wells (100 μL of cell suspension at 160,000 cells/ml). Total volume in culture wells was 200 μL, and plates were centrifuged briefly for 2 min at 1,200 rpm. Unless specified otherwise, 20 μL of culture supernatants were collected and NanoLuc activity was determined by adding 40 μL of RPMI-1640 and 30 μL of NanoLuc reagent (Promega) in black, flat-bottom, 96½-well plates. Bioluminescence was measured during 0.1 s with a luminometer (Enspire; Perkin Elmer).

NP40
activity of the NanoLuc enzyme in the supernatant of K562-NanoLuc cells (K562-NanoLuc cells): increased

NC(=NCc1ccc(Cl)cc1)SCCCc1cnc[nH]1 [Clobenpropit]
cytolytic activity of NK cells (NanoLuc activity in supernatant) (NK cells): completely inhibited
